Molecular target: T1, Phosducin-like protein 3 (Homo sapiens, UniProt Q9H2J4)
T1 sequence (Q9H2J4 whole entry): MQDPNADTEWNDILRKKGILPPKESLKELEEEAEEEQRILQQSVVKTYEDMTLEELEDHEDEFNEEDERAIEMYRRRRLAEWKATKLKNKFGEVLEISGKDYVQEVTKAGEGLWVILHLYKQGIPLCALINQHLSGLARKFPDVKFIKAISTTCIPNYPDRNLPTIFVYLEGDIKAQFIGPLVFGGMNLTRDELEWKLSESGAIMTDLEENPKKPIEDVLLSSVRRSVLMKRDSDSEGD
Test: NMR Screening Assay
Conditions: pH 7.5; 27 °C
Description: NMR-based screen of potential binders by using 1D Aliphatic 1H NMR experiment to investigate the potential role of the c-VIAF as a possible drug target viral infections validation and functional studies.

Compound `CCOC(=O)Cn1cnc2sc3c(c2c1=O)CCC3` [2-(1-keto-7,8-dihydro-6H-cyclopenta[2,3]thieno[2,4-d]pyrimidin-2-yl)acetic acid ethyl ester] has a Kd of 227 µM.
With `CCOC(=O)Cn1cnc2sc3c(c2c1=O)CCCC3` [BI-86-E6] the Kd was 16.5 µM.
In the case of `CCOC(=O)C(CC)n1cnc2sc3c(c2c1=O)CCCC3` (configuration not stated) [BI-86-E8], the Kd is reported as greater than 1000 µM.
For `CC(C)COC(=O)Cn1cnc2sc3c(c2c1=O)CCCC3` [BI-86-E11], the Kd was greater than 1000 µM.
`CCOC(=O)C(C)n1cnc2sc3c(c2c1=O)CCCC3` (configuration not stated) [BI-86-E12] showed a Kd of 76 µM.
`O=C(Cn1cnc2sc3c(c2c1=O)CCCC3)OCc1ccccc1` [BI-86-F2] gave a Kd greater than 1000 µM.
`O=c1[nH]nnc2sc3c(c12)CCCC3` [BI-86-F3] showed a Kd greater than 1000 µM.

Reference: BindingDB's records for doi:10.1111/j.1747-0285.2008.00719.x (The Burnham Institute For Medical Research, 2008)
